Experimental data reported in patent US20240016819A1, “CANNABINOIDS FOR USE IN THE TREATMENT OF EPILEPSY” (GW RESEARCH LIMITED, priority 2020, published 2024).

Tested on: seizures in patients with TSC
Test: Mean total seizures over time in TSC patients after administration of CBD (FIG. 2)
Format: in vivo, human
Settings: starting dose 5 mg/kg/day, 2 week titration period
Procedure: Patients with TSC were administered a highly purified extract of cannabidiol (CBD) obtained from a cannabis plant described herein. Similar to Example 1, patients with a TSC diagnosis were administered a starting dose of 5 mg/kg/day CBD in addition to their baseline anti-epileptic drug (AED) regimen or placebo.
The daily dose was increased by 5 mg/kg increments until intolerance occurred or a maximum dose of 25 mg/kg/day was achieved. The starting dose increase from 5 mg/kg/day to 10 mg/kg/day occurred 7 days after administration of the first dose of CBD. […] The titration period occurred over two weeks. For patients in need of further seizure reduction, the dosage of 20 mg/kg/day was increased up to 25 mg/kg/day after one week.
All patients were taking at least two concomitant anti-epileptic drugs. These included clobazam; levetiracetam; topiramate; stiripentol; phenobarbital; lacsamide; valproic acid; zonisamide. The average number of concomitant antiepileptic drugs being taken was 2.7. The majority took either clobazam and/or valproic acid.
Prior to treatment with CBD, patients recorded the number of seizures they experienced. This established the baseline levels. During the course of treatment, patients recorded the number of seizures experienced each day.

In the case of C=C(C)[C@@H]1CCC(C)=C[C@H]1c1c(O)cc(CCCCC)cc1O [CBD Extract, Cannabidiol], the “mean total seizures over time” value is reported as “starts decreasing during the titration period”.
